System: C. elegans
Protocol: NGM buffer is NGM agar without agar, peptone, or cholesterol.
A moat solution of 100 mM CuSO4 was prepared, which was approximately in osmotic equilibrium with the agar medium. The moat solution was added to the moats by pipette.

In the case of `O=S(=O)([O-])[O-].[Cu+2]` [copper sulfate], the worms escaped (after 3 days, moat containing 100 mM copper sulfate, NGM liquid moat as comparison (about 20%)) is reported as 5% and the “preventing animals from leaving their wells (fraction of worms escaping wells as a function of time)” value (moat containing 100 mM CuSO4, n=96, versus moat containing NGM buffer, FIG. 7b) is reported as “superior”.

From US11795423B2, “Micro-fabricated multi-well chips for long term automated imaging of C. elegans growth and behavior” (THE TRUSTEES OF THE UNIVERSITY OF PENNSYLVANIA, priority 2014, dated 2023)
